Results on 20 compounds are retold here after publication PMC11369174, “Proteome-scale characterisation of motif-based interactome rewiring by disease mutations” (Molecular Systems Biology, 2024).

“Also recorded” adds a separate entry of the source.

Experiment [1] addresses T1, MAP1LC3B ATG8 (Homo sapiens, UniProt Q9GZQ8). Nature of the experiment: FP displacement assay, MAP1LC3B ATG8. Type of experiment: binding. The conditions noted are these: for Kd: read-out: KD-values [µM] + SEM.
Experimental: (§1) FP experiments were performed, as previously described (Kliche et al, [2021], [2023]), on an iD5 plate reader (Molecular devices) using black half-area non-binding 96-well plates (Corning). In order to calculate the FP signal in millipolarisation (mP), the FITC-labelled peptides were excited at 485 nm and the emitted light was measured at 535 nm in two different angles. For saturation experiments, a dilution series of the respective protein domains was generated (25 µL) and 10 nM fluorescein isothiocyanate (FITC)-labelled peptide (diluted in 50 mM sodium phosphate buffer pH 7.4, 0.05% Tween) were added in an end volume of 50 µL. A control experiment titrating GST was performed for the binding of the NEDD4 WW2 domain, since the GST-tagged construct was used for affinity measurements. For fitting the data, the buffer-corrected reduced values were plotted in GraphPad PRISM against the respective protein concentration and the KD-values were obtained by fitting against the quadratic equation (Gianni et al, [2005]).
(§2) The buffer-corrected reduced values were subsequently plotted against the logarithmic unlabelled peptide concentration to derive the IC50 values by using the sigmoidal dose-response (x is logarithmic) fit in GraphPad PRISM and calculate the KD values as described previously (Nikolovska-Coleska et al, [2004]).
Experiment [2] has as its system KPNA4 ARM. Nature of the experiment: GenVar_HD2 ProP-PD phage selection, KPNA4 ARM. The class given is binding, human. The conditions noted are these: for Mutation enrichment score: bait KPNA4 ARM, from NGS counts of overlapping wild-type/mutant library peptide pairs, positive = mutation enhances, negative = disrupts binding; for max_promiscuity / max_specificity: bait-prey protein level, bait_accession O00629.

The target in experiment [3] is KPNA4 ARM major (Homo sapiens, UniProt O00629). Kind of experiment: FP displacement assay, KPNA4 ARM major pocket. Type of experiment: binding. The conditions noted are these: from FP displacement KD values, KPNA4 ARM major pocket.
Experimental: as §1, §2
Experiment [4] deals with ABL1 SH3 (Homo sapiens, UniProt P00519). Kind of experiment: GenVar_HD2 ProP-PD phage selection, ABL1 SH3. Type of experiment: binding. The conditions noted are these: for mutant_found: True/False if a mutated peptide was found in selection; for wildtype_found: True/False if a wild type peptide was found in selection; for mutation_effect_on_PPI: bait-mutation pair categorized as diminished, enhanced or no_effect; for max_wildtype_confidence: maximum confidence for an enriched wild type peptide; for confidence: confidence of the enriched peptide; for overlap: overlapping peptides; for replicates: replicates in which the peptide was found; for max_mutant_confidence: maximum confidence for an enriched mutated peptide.

In experiment [5] the target is KPNA7 ARM major (Homo sapiens, UniProt A9QM74). Kind of experiment: FP displacement assay, KPNA7 ARM major pocket. Type of experiment: binding. The note with it: for Kd: read-out: KD-values [µM] + SEM.
Experimental: as §1, §2
Experiment [6] deals with T1, MAP1LC3B ATG8. Nature of the experiment: Isothermal titration calorimetry, MAP1LC3B ATG8. The class given is binding. Further details: S∆T / ∆H: unit not given here. The conditions noted are these: ITC; for N (stoichiometry of the interaction): N value from the fit or set if necessary. (In general: ITC needs no label: the signal is the heat of the interaction.)
For experiment [7], the target named is T1, MAP1LC3B ATG8. Kind of experiment: GenVar_HD2 ProP-PD phage selection, MAP1LC3B ATG8. The note with it: bait MAP1LC3B ATG8; from NGS counts of overlapping wild-type/mutant library peptide pairs; positive = mutation enhances, negative = disrupts binding. How it is done:
Phage display screens were performed according to previous reports (Benz et al, [2022]; Ali et al, [2020]) and for four consecutive selection rounds with five to six replicates per bait protein domain against the […] library.
On the first day, both bait (15 µg in 100 µL PBS) and control protein domains (GST and MBP; 10 µg in 100 µL PBS) were immobilised on a 96-well MaxiSorb plate (Nunc) overnight in the cold room while shaking. Additionally, a 10 mL culture of Omnimax E. coli bacteria supplemented with 10 µg/mL tetracycline was incubated overnight at 37 °C at 200 rpm.
First, protein solutions were removed from both control and bait protein domain plates and the wells were blocked with 0.5% BSA in PBS (200 µL/well) for 1 h in the cold room while shaking. After that, three Omnimax E. coli cultures were started supplemented with either 30 µg/mL kanamycin, 100 µg/mL carbenicillin and 10 µg/mL tetracycline and incubated at 37 °C and 200 rpm. The two first cultures served as a means to check for helper phage contamination (kanamycin) and phages with library phagemid contamination (carbenicillin) of the culture used for elution of the phages during selections. The tetracycline Omnimax E. coli culture was grown until OD at 600 nm reached 0.6–0.8.
Naïve phage libraries were precipitated (10 µL/well of bait protein domain) by diluting the library tenfold with PBS, adding one-fourth of 20% […] and 400 mM NaCl and incubating the mixture for 15 min on ice. Subsequently, phages were spun down for 15 min at 13,000 × g and resuspended in 0.5% BSA and 0.05% Tween-20 in PBS (100 µL/well). Control domain plates were washed four times with 200 µL 0.05% Tween-20 in PBS, 100 µL of the naïve phage library (10^11 phages/mL) were added to every well and the plates incubated for 1 h in the cold room while shaking. Next, protein bait domain plates were washed four times with 0.05% Tween-20 in PBS and the phage solution from the control protein plate was transferred to the respective wells on the protein bait domain plate. […]

[8] abbreviates: phage selection, bait ABL1_SH3__P00519_60_121.
Setting [9] is: bait domain-prey protein level, bait ABL1_SH3__P00519_60_121.

KPNA7 ARM major, sequence (A9QM74 66-488 limits assumed): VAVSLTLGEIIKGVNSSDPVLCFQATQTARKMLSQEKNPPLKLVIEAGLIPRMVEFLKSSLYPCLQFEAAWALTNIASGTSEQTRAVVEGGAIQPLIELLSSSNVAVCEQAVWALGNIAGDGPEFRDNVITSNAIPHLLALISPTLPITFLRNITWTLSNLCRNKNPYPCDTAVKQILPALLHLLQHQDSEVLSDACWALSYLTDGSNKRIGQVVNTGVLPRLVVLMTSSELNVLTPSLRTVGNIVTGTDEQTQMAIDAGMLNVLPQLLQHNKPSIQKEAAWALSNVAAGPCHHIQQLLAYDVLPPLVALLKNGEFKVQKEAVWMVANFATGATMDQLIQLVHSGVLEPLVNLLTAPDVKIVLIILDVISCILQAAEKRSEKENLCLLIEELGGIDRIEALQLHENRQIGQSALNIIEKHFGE
ABL1 SH3, sequence (P00519 60-121): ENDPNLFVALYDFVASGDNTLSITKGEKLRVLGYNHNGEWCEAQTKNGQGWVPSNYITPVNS
KPNA4 ARM major, sequence (O00629 68-487): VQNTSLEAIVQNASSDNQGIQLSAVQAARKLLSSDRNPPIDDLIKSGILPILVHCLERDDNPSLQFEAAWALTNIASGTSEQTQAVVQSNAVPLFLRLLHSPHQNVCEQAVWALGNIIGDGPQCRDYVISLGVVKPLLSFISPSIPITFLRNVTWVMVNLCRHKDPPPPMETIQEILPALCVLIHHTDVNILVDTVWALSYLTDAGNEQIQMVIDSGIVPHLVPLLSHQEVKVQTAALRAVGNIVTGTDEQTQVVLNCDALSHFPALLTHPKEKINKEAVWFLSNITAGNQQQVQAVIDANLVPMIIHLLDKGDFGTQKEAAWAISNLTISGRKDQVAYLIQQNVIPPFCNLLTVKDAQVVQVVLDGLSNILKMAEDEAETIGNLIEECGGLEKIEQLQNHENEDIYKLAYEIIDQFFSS

As usually defined, the Kd is the equilibrium constant for the complex coming apart. Regarding `CC(=O)NCC(=O)N[C@@H](CC(=O)O)C(=O)N[C@@H](CC(=O)O)C(=O)N[C@@H](CC(=O)O)C(=O)N[C@@H](Cc1c[nH]c2ccccc12)C(=O)N[C@H](C(=O)N[C@@H](Cc1c[nH]cn1)C(=O)N[C@@H](CC(C)C)C(=O)N[C@@H](CO)C(=O)N[C@@H](CO)C(=O)N[C@@H](CCCCN)C(=O)N[C@@H](CCC(=O)O)C(=O)N[C@H](C(=O)N[C@@H](CC(=O)O)C(=O)N1CCC[C@H]1C(=O)N[C@@H](CO)C(N)=O)C(C)C)[C@@H](C)O` [SQSTM1_334-349 wild-type], in experiment [1], the Kd worked out at 0.5 ± 0.1 µM.
Regarding “Ac-LDLDDRWQFKRSQLLD-NH2 [ABRAXAS1_349-364 R361Q]”, in experiment [2], the Mutation enrichment score is −6. In addition, the “weakened binding, mutant vs wild-type peptide” value in experiment [3] was 400 fold.
For the compound “LSPVRSPTPPAAGFQPLLNGRLVPVPPTTPAPGVQLDVEAL [B1AK53.S719R]”, in experiment [4], the mutant_found entry is “FALSE”, the wildtype_found entry is given as “TRUE” and the max_wildtype_confidence stood at 2. For the same compound, the mutation_effect_on_PPI result in experiment [4] (bait ABL1_SH3__P00519_60_121) was “no_effect”.
As for EPRFSPPHSPPGPAMP, in experiment [4] (setting [8]), the promiscuity is listed as 2, the specificity is recorded as 0.9643, the confidence is 3 and the overlap is listed as 1. The compound further registered a replicates in experiment [4] (setting [8]) of 5.
In the case of “Ac-YPRMPEAARPVAPAPAAP-NH2 [TP53_64-80 P72R]”, in experiment [4] (bait ABL1 SH3, from NGS counts of overlapping wild-type/mutant library peptide pairs, positive = mutation enhances, negative = disrupts binding), the Mutation enrichment score is −6.
On to “Ac-EPSEKRTRLEEEIVEY-NH2 [CDC45_152-166 wild-type]”, for which, in experiment [5], the Kd came out at 6.6 ± 0.7 µM.
As to “HYLDLLALLLDSSEPRFSPPHSPPGPCMPEVFLEAAVALIQ [O15287.P386H]”, in experiment [4], the mutant_found result was “TRUE”, the wildtype_found result is reported as “TRUE”, the max_mutant_confidence is 3 and the max_wildtype_confidence is on record as 4. The mutation_effect_on_PPI entry in experiment [4] (bait ABL1_SH3__P00519_60_121) is listed as “no_effect”.
For the compound “Ac-EDEVYETVVDTSEEDS-NH2 [BRCA2_292-307 wild-type]”, in experiment [6] (replicate 1), the Ka is reported as 9160, the “S∆T” value is -1.5, the “∆H” value was -5832 and the “N (stoichiometry of the interaction)” value stood at 0.70. In addition, in experiment [6] (replicate 2), the Ka is reported as 55000, the “S∆T” value amounted to 13.7, the “∆H” value is -2389 and the “N (stoichiometry of the interaction)” value came to 0.684. Moreover, in experiment [6] (average of the Kd [µM] column, wild-type technical duplicate, mutant technical triplets, read-out: Average Kd), the Kd stood at 64 µM. The compound further gave a dissociation constant (Kd) in experiment [6] (KD (isothermal titration calorimetry), 50 mM sodium phosphate pH 7.4, 1 mM DTT, peptide titrated in tenfold excess, 16 injections) of 20 to 100 µM. For the same compound, the dissociation constant (Kd) in experiment [1] came to 3.12 ± 0.08 µM.
Turning to PLFPPPGEPSLSPLLG, in experiment [4] (setting [8]), the promiscuity is reported as 2, the specificity stood at 0.9995, the confidence is given as 3 and the overlap was 0. The replicates in experiment [4] (setting [8]) amounted to 6.
As to “Ac-EPSEKCTRLEEEIVEY-NH2 [CDC45_152-166 R157C]”, the Mutation enrichment score in experiment [2] is recorded as −7. Also, in experiment [5] (from FP displacement KD values, KPNA7 ARM major pocket), the “loss of binding, mutant vs wild-type peptide” value is recorded as 50 fold. The Kd in experiment [5] is 380 ± 15 µM. For the same compound, the “weakened binding, mutant vs wild-type peptide” value in experiment [3] stood at 70 fold.
On to NGSLVPVPPTTPAPGV, for which, in experiment [4] (setting [8]), the promiscuity is reported as 2, the specificity stood at 0.8421, the confidence is reported as 2 and the overlap is given as 0. In experiment [4] (setting [8]), the replicates is reported as 4.
Consider LDSSEPRFSPPLSPPG, for which, in experiment [4] (setting [8]), the promiscuity is given as 1, the specificity is recorded as 1, the confidence was 2 and the overlap was found to be 1. Further, in experiment [4] (setting [8]), the replicates stood at 1. The compound also gave a mean_counts_% in experiment [4] (phage selection, bait ABL1_SH3__P00519_60_121, NGS counts) of 0.0009534%.
Regarding `CC(=O)NCC(=O)N[C@@H](CC(=O)O)C(=O)N[C@@H](CC(=O)O)C(=O)N[C@@H](CC(=O)O)C(=O)N[C@@H](Cc1c[nH]c2ccccc12)C(=O)N[C@H](C(=O)N[C@@H](Cc1c[nH]cn1)C(=O)N[C@@H](CC(C)C)C(=O)N[C@@H](CO)C(=O)N[C@@H](CO)C(=O)N[C@@H](CCCCN)C(=O)N[C@@H](CCC(=O)O)C(=O)N[C@H](C(=O)N[C@@H](CC(=O)O)C(=O)N[C@@H](CC(C)C)C(=O)N[C@@H](CO)C(N)=O)C(C)C)[C@@H](C)O` [SQSTM1_334-349 P348L], the “effect of the mutation on binding (in words)” value in experiment [1] (FP affinity measurements, MAP1LC3B ATG8) is “the mutation has no impact on binding; also recorded: did not affect the binding”. Besides, in experiment [1], the Kd was 0.6 ± 0.1 µM. In addition, the Mutation enrichment score in experiment [7] came out at 7.6.
Consider A7E2Y1, for which, in experiment [2], the max_promiscuity is recorded as 10 and the max_specificity worked out at 0.7829.
Turning to O14647, in experiment [2], the max_promiscuity is 11 and the max_specificity stood at 0.5779.
Take EGR2: in experiment [4] (setting [9]), the max_promiscuity is listed as 5 and the max_specificity is listed as 0.973.
As to “HYLDLLALLLDSSEPRFSPPLSPPGPCMPEVFLEAAVALIQ [O15287.P386L]”, in experiment [4], the mutant_found entry is given as “TRUE”, the wildtype_found result was “TRUE”, the max_mutant_confidence stood at 2 and the max_wildtype_confidence worked out at 4. The mutation_effect_on_PPI result in experiment [4] (bait ABL1_SH3__P00519_60_121) is on record as “no_effect”.
With EPRFSPPPSPPGPAMP, in experiment [4] (setting [8]), the promiscuity is recorded as 5, the specificity came to 0.995, the confidence is 4 and the overlap stood at 1. Also, the replicates in experiment [4] (setting [8]) amounted to 6.
As to “KPPEEPGQCPAPEELPLFPPTGEPSLSPLLGEPALSEPGEP [O14686.P886T]”, in experiment [4], the mutant_found result is given as “FALSE”, the wildtype_found result was “TRUE” and the max_wildtype_confidence was 3. Moreover, the mutation_effect_on_PPI entry in experiment [4] (bait ABL1_SH3__P00519_60_121) is on record as “diminished”.
Consider “KPPEEPGQCPAPEELPLFPPSGEPSLSPLLGEPALSEPGEP [O14686.P886S]”, for which, in experiment [4], the mutant_found result is given as “TRUE”, the wildtype_found result is “TRUE”, the max_mutant_confidence turned out to be 1 and the max_wildtype_confidence is recorded as 3. The mutation_effect_on_PPI entry in experiment [4] (bait ABL1_SH3__P00519_60_121) is “no_effect”.
